{"source": "patent US20230407098A1", "about": "“METHOD FOR EVALUATING CYSTINE UPTAKE ABILITY OF CELL, KIT FOR EVALUATING CYSTINE UPTAKE ABILITY OF CELL, METHOD FOR DETERMINING SELENOCYSTEINE, AND KIT FOR DETERMINING SELENOCYSTEINE” (DOJINDO LABORATORIES, priority 2021, published 2023)", "key": {"HeLa cells": {"tested_on": "HeLa cells", "assay": "Ability to take selenocystine into cells (FOdA/TCEP fluorescence measurement)", "type": "cell-based, human", "details": "selenocystine at concentrations in cystine-free DMEM, 30 minutes, FIG. 2", "procedure": "DMEM (cystine-free) was added to HeLa cells, and the cells were incubated in a CO2 incubator (37° C.) for 5 minutes. After the removal of the supernatant, DMEM (cystine-free) containing selenocystine at concentrations was added, and the cells were incubated in the CO 2 incubator (37° C.) for 30 minutes. After removing the supernatant, the cells were washed with PBS three times and then lysed with methanol. Then, 100 mM MES at a pH of 6 containing 10 μM FOdA and 200 μM TCEP was added, and the mixture was incubated at 37° C. for 30 minutes. The fluorescence intensity of each solution was then measured with a plate reader (Infinite(R) 200 PRO, excitation wavelength: 485 nm, fluorescence wavelength: 535 nm)."}, "cystine transporter": {"target": "T1, cystine transporter (Homo sapiens, UniProt Q9UPY5)", "T1 construct": "endogenous in cells; host or cells: HeLa cells", "T1 sequence (Q9UPY5 1-501)": "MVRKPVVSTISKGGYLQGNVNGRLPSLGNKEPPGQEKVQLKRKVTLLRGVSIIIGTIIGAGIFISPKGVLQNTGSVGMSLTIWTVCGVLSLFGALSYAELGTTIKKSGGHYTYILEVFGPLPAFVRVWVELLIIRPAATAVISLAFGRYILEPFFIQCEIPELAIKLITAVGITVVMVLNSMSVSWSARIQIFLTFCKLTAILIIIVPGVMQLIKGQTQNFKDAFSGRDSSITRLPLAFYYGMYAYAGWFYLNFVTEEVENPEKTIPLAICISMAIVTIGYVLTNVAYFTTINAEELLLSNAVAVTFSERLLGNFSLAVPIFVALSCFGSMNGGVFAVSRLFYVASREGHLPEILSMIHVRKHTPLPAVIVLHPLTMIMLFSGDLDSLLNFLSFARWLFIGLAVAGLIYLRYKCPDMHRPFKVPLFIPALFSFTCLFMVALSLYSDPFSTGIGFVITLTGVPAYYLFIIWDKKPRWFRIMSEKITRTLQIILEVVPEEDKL", "T1 sequence (P08195 1-529 partner)": "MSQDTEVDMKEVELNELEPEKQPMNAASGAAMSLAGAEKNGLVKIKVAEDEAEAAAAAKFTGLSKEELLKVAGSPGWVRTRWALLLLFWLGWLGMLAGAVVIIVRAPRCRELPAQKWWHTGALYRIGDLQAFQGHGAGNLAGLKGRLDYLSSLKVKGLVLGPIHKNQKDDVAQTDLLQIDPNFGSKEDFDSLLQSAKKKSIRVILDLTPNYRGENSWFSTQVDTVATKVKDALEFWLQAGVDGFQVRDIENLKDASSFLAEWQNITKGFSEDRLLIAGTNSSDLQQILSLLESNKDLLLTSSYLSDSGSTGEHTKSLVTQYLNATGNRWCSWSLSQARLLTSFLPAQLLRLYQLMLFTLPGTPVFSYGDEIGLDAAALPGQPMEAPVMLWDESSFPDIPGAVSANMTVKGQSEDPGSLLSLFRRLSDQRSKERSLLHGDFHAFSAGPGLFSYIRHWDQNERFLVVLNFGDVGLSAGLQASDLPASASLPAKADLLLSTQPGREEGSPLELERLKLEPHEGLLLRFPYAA", "assay": "Inhibition of selenocystine uptake by cystine transporter inhibitor", "type": "cell-based", "details": "HeLa cells, with cystine transporter inhibitor (sulfasalazine or erastin); FIG. 3", "procedure": "DMEM (cystine-free) containing a cystine transporter inhibitor (sulfasalazine or erastin) was added to HeLa cells, and the cells were incubated in the CO2 incubator (37° C.) for 5 minutes. DMEM (cystine-free) containing 200 μM selenocystine was then added, and the cells were incubated in the CO2 incubator (37° C.) for 30 minutes. After removing the supernatant, the cells were washed with PBS three times and lysed with methanol. Then, 100 mM MES at a pH of 6 containing 10 μM FOdA and 200 μM TCEP was added, and the cells were incubated at 37° C. for 30 minutes. The fluorescence intensity of each solution was then measured with a plate reader (Infinite(R) 200 PRO, excitation wavelength: 485 nm, fluorescence wavelength: 535 nm)."}}}
{"smiles": "N[C@@H](C[Se][Se]C[C@H](N)C(=O)O)C(=O)O", "note": "[selenocystine]", "values": [{"measurement": "fluorescence intensity (selenocystine taken up by the cells)", "setting": "HeLa cells", "result": "increased depending on the concentration of selenocystine"}, {"measurement": "route of selenocystine uptake", "setting": "cystine transporter", "result": "taken through cystine transporter"}]}
